What was measured:
Bol-71 = experiment: Mode of inheritance greenhouse spray test, wild parent; type: in vivo, sorghum; conditions: 0.045 lb ai fluazifop-P acre^-1 at 14 days after planting, n=3
Protocol: (§1) The mode of inheritance of herbicide tolerance was determined by planting seeds of Bol-71, F1 generation of cross ATx623×Bol-71, and Pioneer 84G62 (herbicide susceptible control) in flats containing MetroMix 360 potting soil in a greenhouse using a randomized complete block design (n=3). The plants were sprayed with 0.045 lb ai fluazifop-P acre^−1 at 14 days after planting. Pioneer 84G62 died between 12-16 days after spraying.

[1] = test system: Pioneer 84G62 (herbicide susceptible control); experiment: Mode of inheritance greenhouse spray test, susceptible control; type: in vivo, sorghum; conditions: 0.045 lb ai fluazifop-P acre^-1 at 14 days after planting, n=3
Protocol: as §1

[2] = test system: F1 generation of cross ATx623×Bol-71; experiment: Mode of inheritance greenhouse spray test, F1 hybrid; type: in vivo, sorghum; conditions: 0.045 lb ai fluazifop-P acre^-1 at 14 days after planting, n=3
Protocol: as §1

[3] = test system: Tx2783, an herbicide susceptible elite sorghum genotype; experiment: Greenhouse herbicide selection, spray on susceptible elite check; type: in vivo, Sorghum bicolor (L.) Moench
Text: Seeds of 83 wild sorghum populations from Bolivia were planted in a greenhouse for comparison with Tx2783, an herbicide susceptible elite sorghum genotype. Wild sorghum genotypes were planted in flats containing MetroMix 360 potting soil (Sun Gro) and greenhouse grown. Tx2783 was planted with the wild accessions in each flat for comparison. In one selection using clethodim, plants were sprayed with 0.09 lb ai clethodim acre^−1 at 18 days after planting. […] In one selection using fluoazifop-P, flats with Tx2783 and wild accessions were sprayed with a rate of 0.12 lb ai fluazifop-P acre^−1 at 18 days after planting and with 0.36 lb ai fluazifop-P acre^−1 at 32 days after planting. […] In a third experiment, plants were sprayed with a rate of 0.05 lb ai quizalofop acre^−1 at 18 days after planting and with 0.11 lb ai quizalofop acre^−1 at 32 days after planting.

| SMILES | herbicide damage (Bol-71) | time of plant death after spraying [1] | herbicide damage [2] | plant outcome after spraying ([3]; 0.12 lb ai fluazifop-P acre^-1 at 18 days and 0.36 lb ai acre^-1 at 32 days after planting) | plant outcome after spraying ([3]; 0.05 lb ai quizalofop acre^-1 at 18 days and 0.11 lb ai acre^-1 at 32 days after planting) |
| --- | --- | --- | --- | --- | --- |
| C[C@@H](Oc1ccc(Oc2ccc(C(F)(F)F)cn2)cc1)C(=O)O [fluazifop-P] | no herbicide damage | 12-16 days after spraying | no herbicide damage | died | – |
| CC(Oc1ccc(Oc2cnc3cc(Cl)ccc3n2)cc1)C(=O)O (centres unmarked) [quizalofop] | – | – | – | – | died |
